Measured values: publication PMC10354055, “An optimized Nurr1 agonist provides disease-modifying effects in Parkinson’s disease models” (Nature Communications, 2023)
Where “and” joins values, the source holds several entries; their conditions need not be identical. Identical values can stand only once.

What was measured:
[1] = target: Nurr1-LBD (Homo sapiens, UniProt P43354); assay: TR-FRET competition assay with HCQFluo; type: binding; conditions: Fig. 1i
Experimental: TR-FRET assay was performed in PPI Terbium (Tb) detection buffer (PerkinElmer) and contained 0.2 µM of Nurr1-LBD, 0.5 µM of fluorescence-labeled hydroxy-CQ (HCQFluo; Proimaging) and serial concentrations of CQ, 4A7C-301 or RA (10^−4–10^6 nM). Rabbit anti-Nurr1 antibody (3 nM; prepared in our lab) and anti-rabbit IgG-Tb (1:400; Cisbio, 61PARTAF) were included in the assay solution as a donor complex. Assay solutions were loaded in a 384-well OptiPlate™ (PerkinElmer). After 2 h incubation in the dark at room temperature, the FRET signal was measured by excitation at 340 nm and emission at 520 nm for fluorescein and 495 nm for Tb using a VICTOR Nivo plate reader (PerkinElmer). Data were fit using the non-linear regression program in GraphPad Prism version 8.0.2.

[2] = tested on: N27-A cells; assay: Mitochondrial activity assay, Seahorse XFp, N27-A cells; type: cell-based, rat; parameters: Seahorse time trace (OCR): unit not given here; conditions: for OCR changes after FCCP injection: MPP+ co-treatment, individual replicates (Supplementary Figure S1o); for Seahorse time trace (OCR) / ATP turnover: replicates; for ATP turnover: Fig. S1n, with MPP+
Experimental: Mitochondrial activity was measured using the Seahorse XFp analyzer (Agilent Technologies) according to the manufacturer’s instruction. Briefly, cells were plated onto wells of a XFp cell culture miniplate and incubated in a 37 °C incubator overnight. The assay was performed after cells were equilibrated for 1 h in XF assay medium supplemented with 10 mM D-glucose, 5 mM sodium pyruvate, and 2 mM glutamax in a non-CO2 incubator. Mitochondrial activity was monitored through sequential injections of 1 μM oligomycin, 2 μM carbonyl cyanide-4 (trifluoromethoxy) phenylhydrazone (FCCP) and 0.5 μM rotenone/antimycin A to calculate basal respiration (= baseline oxygen consumption rate (OCR)−rotenone/antimycin A OCR), maximal respiration (= FCCP OCR−rotenone/antimycin A OCR), ATP turnover (= baseline OCR−oligomycin OCR), and OCR changes after FCCP injection (= FCCP OCR−oligomycin OCR). Each plotted value was normalized to total protein quantified using a Bradford protein assay (Bio-Rad) and analyzed using the Seahorse WAVE Desktop software (Agilent Technologies).

[3] = tested on: Nurr1 protein; assay: Nurr1 protein level, Western blot, MN9D cells with MPP+ or αSyn overexpression; type: cell-based, mouse; conditions: against MPP+ and αSynWT overexpression
Experimental: Experiments were confirmed by duplicate measurements of the same sample. Quantification of immunoreactive bands was performed using ImageJ software (NIH, Bethesda, MD, USA) and expressed as a relative ratio against β-actin.
Lenti-GFP, -αSyn^WT, and -αSyn^A53T viruses were generated separately by co-transfecting each shuttle plasmid with lentivirus packaging plasmids into HEK293T cells using lipofectamine 2000 (Invitrogen). Briefly, 2 μg each FUW inducible shuttle plasmid, 2 μg FUW-rtTA, 2 μg psPax2 and 1.5 μg MD2.G were mixed and transfected into HEK293T cells. After 48 h, viral supernatants were collected and centrifuged at 1000g for 10 min, and subsequently filtered through a 0.45 μm filter. Lentiviruses were transduced into MN9D cells with 8 μg/ml of polybrene and the viral supernatant was removed and replaced with fresh medium a day after transduction.

[4] = tested on: MPTP-induced male mice; assay: Pole test, MPTP-induced PD model mice; type: in vivo, mouse; conditions: Figure 4c; MPTP-induced mice; individual animal values
Experimental: MPTP (Sigma-Aldrich) was intraperitoneally (i.p.) injected (30 mg/kg) for 5 days (Day 1-5). […] To test dyskinetic involuntary behavior, an L-DOPA injected group was included, which received 50 mg/kg of L-DOPA and 15 mg/kg of benserazide (Sigma-Aldrich) (i.p.) for 16 days (Day 1–16). All compounds were administered 6 h post-MPTP injection to avoid any effect of compounds on the MPTP metabolism in the brain. Motor and non-motor related behavior tests were performed on the following days as described in Fig. 4a in an assessor- and observer-blinded fashion. Pre-training and baseline setup for motor-related behaviors were performed 3 days prior to the injections. Mice were sacrificed and subjected to immunohistochemistry. Mice were housed at the Animal Care Facilities of McLean Hospital under a 12-h light/12-h dark cycle, ambient temperature and humidity. Animals were handled in accordance with McLean Hospital’s Institutional Animal Care and Use Committee (Protocol #: 2015N000002) and followed National Institutes of Health guidelines.
(§1) Mice were trained to descend a vertical metal rod wrapped with rough tape (80 cm high, 12 mm diameter) once per day for 2 days, and then the baseline was measured before the pole test (3 days before the MPTP injection or the first pole test at week 2). Mice were placed head-upward on the pole and total descent time was recorded.

[5] = tested on: AAV-αSyn-induced male mice; assay: Pole test, AAV-αSyn-induced PD model mice; type: in vivo, mouse; conditions: αSynWT and αSynA53T mice; CQ 40, 4A7C-301 5 mg/kg/day i.p.
Source text: Adeno-associated viruses (AAVs) expressing GFP only or αSyn (wild-type or A53T) were kindly provided by Dr. Yoon Seong Kim from the University of Central Florida. Recombinant AAV vectors were produced using modified pAAV-IRES-hrGFP (Agilent) to express wild-type and mutant human αSyn under control of the CMV promoter. Viral particles (AAV2) were produced at the University of Iowa Viral Vector Core according to standard operating procedures (https://medicine.uiowa.edu/vectorcore/). […] AAV vectors were delivered into the substantia nigra unilaterally by stereotaxic surgery.
as §1

Sequence of Nurr1-LBD (P43354 360-595 limits assumed, species assumed): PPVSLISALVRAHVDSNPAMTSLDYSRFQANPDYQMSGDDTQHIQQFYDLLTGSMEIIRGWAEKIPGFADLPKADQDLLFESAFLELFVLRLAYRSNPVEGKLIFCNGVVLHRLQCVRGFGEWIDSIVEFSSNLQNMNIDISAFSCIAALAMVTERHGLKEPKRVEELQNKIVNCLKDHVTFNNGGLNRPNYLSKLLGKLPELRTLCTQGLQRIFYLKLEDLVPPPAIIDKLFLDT

CCN(CC)CCCC(C)Nc1ccnc2cc(Cl)ccc12 (centres unmarked) [CQ, chloroquine]
Interaction [HTRF] ([1]; 0.05 µM): 3273.3930 and 3465.5840 and 3369.4880 | Interaction [HTRF] ([1]; 0.1 µM): 3399.0860 and 3151.8330 and 3275.4590 | Interaction [HTRF] ([1]; 0.5 µM): 3111.7350 and 2901.1980 and 3006.4660 | Interaction [HTRF] ([1]; 1 µM): 2895.7250 and 2781.2580 and 2838.4910 | Interaction [HTRF] ([1]; 5 µM): 2113.6450 and 1994.2770 and 2053.9610 | Interaction [HTRF] ([1]; 10 µM): 1574.8930 and 1346.8690 and 1460.8810 | Interaction [HTRF] ([1]; 50 µM): 1485.2580 and 1344.1380 and 1414.6980 | Interaction [HTRF] ([1]; 100 µM): 1202.4890 and 1355.5820 and 1279.0350 | Interaction [HTRF] ([1]; 200 µM): 1193.4910 and 1136.9480 and 1165.2200 | IC50 ([1]; competition with HCQFluo): 2330 nM and 2000 nM | OXPHOS capacity reduced by MPP+ (in words) ([2]; CQ 100 µM, 4A7C-301 1 µM): efficiently restored | OCR changes after FCCP injection ([2]; Control N27-A cells): 8.55 pmol/min/µg protein and 7.31 pmol/min/µg protein and 2.32 pmol/min/µg protein and 23.52 pmol/min/µg protein | Seahorse time trace (OCR) ([2]; Fig. S1j/k, Control + MPP+, time 2 min): 3.66 and 2.51 and 27.76 | Seahorse time trace (OCR) ([2]; Fig. S1j/k, Control + MPP+, time 8 min): 3.46 and 2.01 and 20.11 | Seahorse time trace (OCR) ([2]; Fig. S1j/k, Control + MPP+, time 15 min): 2.32 and 1.98 and 22.16 and 9.29 | Seahorse time trace (OCR) ([2]; Fig. S1j/k, Control + MPP+, time 21 min): 0.27 and 19.75 and 5.17 | Seahorse time trace (OCR) ([2]; Fig. S1j/k, Control + MPP+, time 28 min): 0.58 and 1.26 and 17.08 and 5.33 | Seahorse time trace (OCR) ([2]; Fig. S1j/k, Control + MPP+, time 34 min): 0.71 and 18.32 and 7.16 | Seahorse time trace (OCR) ([2]; Fig. S1j/k, Control + MPP+, time 41 min): 7.58 and 3.41 and 40.6 and 13.72 | Seahorse time trace (OCR) ([2]; Fig. S1j/k, Control + MPP+, time 47 min): 6.82 and 3.28 and 39.31 | Seahorse time trace (OCR) ([2]; Fig. S1j/k, Control + MPP+, time 54 min): 6.13 and 3.21 and 37.92 and 10.02 | Seahorse time trace (OCR) ([2]; Fig. S1j/k, Control + MPP+, time 61 min): 0.03 and 1.24 and 16.5 and 4.04 | Seahorse time trace (OCR) ([2]; Fig. S1j/k, Control + MPP+, time 67 min): 0.55 and 1.35 and 12.69 and 5.31 | Seahorse time trace (OCR) ([2]; Fig. S1j/k, Control + MPP+, time 74 min): 1.39 and 17 and 5.99 | Seahorse time trace (OCR) ([2]; Fig. S1j, Nurr1 OE + MPP+, time 2 min): 26.25 and 15.29 | Seahorse time trace (OCR) ([2]; Fig. S1j, Nurr1 OE + MPP+, time 8 min): 18.52 and 15.98 | Seahorse time trace (OCR) ([2]; Fig. S1j, Nurr1 OE + MPP+, time 15 min): 20.57 and 30.55 and 13.93 | Seahorse time trace (OCR) ([2]; Fig. S1j, Nurr1 OE + MPP+, time 21 min): 5.95 and 6.99 and 4.75 and 6.7 | Seahorse time trace (OCR) ([2]; Fig. S1j, Nurr1 OE + MPP+, time 28 min): 5.18 and 6.25 and 5.44 and 7.19 | Seahorse time trace (OCR) ([2]; Fig. S1j, Nurr1 OE + MPP+, time 34 min): 4.78 and 5.8 and 5.34 and 7.96 | Seahorse time trace (OCR) ([2]; Fig. S1j, Nurr1 OE + MPP+, time 41 min): 28.78 and 44.27 and 30.42 | Seahorse time trace (OCR) ([2]; Fig. S1j, Nurr1 OE + MPP+, time 47 min): 28.4 and 36.09 and 14.17 | Seahorse time trace (OCR) ([2]; Fig. S1j, Nurr1 OE + MPP+, time 54 min): 26.28 and 35.06 and 18.57 and 28.22 | Seahorse time trace (OCR) ([2]; Fig. S1j, Nurr1 OE + MPP+, time 61 min): 4.76 and 5.21 and 0.65 and 4.3 | Seahorse time trace (OCR) ([2]; Fig. S1j, Nurr1 OE + MPP+, time 67 min): 4.21 and 5.44 and 0.96 and 4.79 | Seahorse time trace (OCR) ([2]; Fig. S1j, Nurr1 OE + MPP+, time 74 min): 4.26 and 6.26 and 5.01 | Seahorse time trace (OCR) ([2]; Fig. S1k, Nurr1 KD + MPP+, time 2 min): 19.09 and 7.42 and 5.75 and 10.38 | Seahorse time trace (OCR) ([2]; Fig. S1k, Nurr1 KD + MPP+, time 8 min): 18.47 and 7.53 and 4.86 and 8.38 | Seahorse time trace (OCR) ([2]; Fig. S1k, Nurr1 KD + MPP+, time 15 min): 15.57 and 7.6 and 4.41 and 7.39 | Seahorse time trace (OCR) ([2]; Fig. S1k, Nurr1 KD + MPP+, time 21 min): 1.43 and 1.21 | Seahorse time trace (OCR) ([2]; Fig. S1k, Nurr1 KD + MPP+, time 28 min): 13.44 and 8.97 and 1.24 | Seahorse time trace (OCR) ([2]; Fig. S1k, Nurr1 KD + MPP+, time 34 min): 8.6 | ATP turnover ([2]; Control cells): 6.76 pmol/min/µg protein and 3.39 pmol/min/µg protein and 1.42 pmol/min/µg protein and 10.68 pmol/min/µg protein | ATP turnover ([2]; Nurr1 KD cells): 7.63 pmol/min/µg protein and -1 pmol/min/µg protein and 4.86 pmol/min/µg protein and 9.17 pmol/min/µg protein | ATP turnover ([2]; Nurr1 OE cells): 19.32 pmol/min/µg protein and 24.75 pmol/min/µg protein and 13.77 pmol/min/µg protein and 18.27 pmol/min/µg protein | OCR changes after FCCP injection ([2]; Nurr1 KD N27-A cells): 12.59 pmol/min/µg protein and 4.43 pmol/min/µg protein and 9.84 pmol/min/µg protein and 17.76 pmol/min/µg protein | OCR changes after FCCP injection ([2]; Nurr1 OE N27-A cells): 24 pmol/min/µg protein and 37.47 pmol/min/µg protein and 12.22 pmol/min/µg protein and 23.73 pmol/min/µg protein | Nurr1 protein levels (in words) [3]: significantly restored | Time to traverse [4]: 6.3 s and 5.45 s and 6.58 s and 7.09 s and 8.95 s and 7.99 s and 7.69 s and 9.73 s and 9.95 s | motor deficits, pole test (in words) [5]: partial recovery
